{
  "source": "patent US10130590B2",
  "about": "“Methods of treating cancer with atovaquone-related compounds” (DANA-FARBER CANCER INSTITUTE, INC., priority 2013, dated 2018)",
  "key": {"[1]": {"system": "endogenous STAT3 target genes", "test": "qRT-PCR of endogenous STAT3 target genes", "type": "cell-based", "conditions": "U266, INA-6 and HEL cells, 6 hours", "method": "Total RNA was reverse transcribed using random hexamers and assayed by qRT-PCR as previously described (see, Grivennikov S I, Greten F R, & Karin M (2010) Immunity, inflammation, and cancer. Cell 140(6):883-899).\nGene expression was analyzed in triplicate, normalized by 18S rRNA, and expressed as mean±SEM. For gene expression microarrays, RNA was isolated by Trizol, purified further on RNeasy columns, and profiled using Affymetrix Human Gene 1.0 ST arrays (Affymetrix). Results were deposited under GEO Accession: GSE46575.\nThe mechanism by which atovaquone inhibits STAT3 was investigated. STAT3-luc reporter cells were pre-treated with atovaquone (20 μM) for 1 hr, and then stimulated with IL-6 (10 ng/ml) for 15 minutes, 30 minutes, 1 hours, or 2 hours. Since STAT3 transcriptional activity is critically dependent on tyrosine phosphorylation, Western blotting was performed to see if atovaquone affected STAT3 phosphorylation. […] Next, atovaquone was used to treat U266 (2.5 hours), HEL (6 hours), or INA-6 cells (4 hours). […] In U266 and INA-6 cells, the source of STAT3 activation is JAK-dependent IL-6 signaling, while in HEL cells, STAT3 is activated by mutant JAK2-V617F. Given that atovaquone inhibits constitutive STAT3 activation in cancer cells, it was asked whether atovaquone inhibits expression of endogenous STAT3 target genes in this context."}, "[2]": {"system": "U266 cells", "test": "Cell viability (Cell Titer Glo), U266", "type": "cell-based, human", "conditions": "72 hours", "method": "Western blotting was performed as previously described (Battle T E, Arbiser J, & Frank D A (2005) The natural product honokiol induces caspase dependent apoptosis in B-cell chronic lymphocytic leukemia (B-CLL) cells. Blood 106(2):690-697). Antibodies to phospho-MAPK (9101), total MAPK (9102), phospho-Y705 STAT3 (9131), phospho-S6 (2215), total S6 (2217), phospho-4E-BP1 (9451), total 4E-BP1 (9644), total RSK (9355), phospho-S6K (9234, 85 used at 1:5000), total S6K (2708), phospho-eIF2α (9721, used at 1:1000), total eIF2α (5324), ATF4 (11815, used at 1:1000), PDGFRβ (3169), IGF1Rβ (9750), EGFR (2232), and HER2 (2242) were from Cell Signaling Technology. Phospho-RSK antibody was from R&D (AF889). Antibodies to total STAT3 (sc-482) and gp130 (sc-656, used at 1:1000) were from Santa Cruz Biotechnology. Phospho-S727 STAT3 antibody was described previously (229). REDD1 antibody was from Proteintech (10638-1-AP, used at 1:1000). Antibody recognizing full-length and cleaved ATF6 was from Abcam (ab122897, used at 1:1000). Antibodies to tubulin (T5168) and beta actin (A5316) were from Sigma. All antibodies were used at 1:10000 dilution for western blot unless otherwise noted. […] Cell viability was measured as ATP-dependent luminescence by Cell Titer Glo (Promega). […]"}, "[3]": {"system": "gp130", "test": "Western blot of total gp130", "type": "cell-based", "method": "Western blotting was performed as previously described (Battle T E, Arbiser J, & Frank D A (2005) The natural product honokiol induces caspase dependent apoptosis in B-cell chronic lymphocytic leukemia (B-CLL) cells. Blood 106(2):690-697). Antibodies to phospho-MAPK (9101), total MAPK (9102), phospho-Y705 STAT3 (9131), phospho-S6 (2215), total S6 (2217), phospho-4E-BP1 (9451), total 4E-BP1 (9644), total RSK (9355), phospho-S6K (9234, 85 used at 1:5000), total S6K (2708), phospho-eIF2α (9721, used at 1:1000), total eIF2α (5324), ATF4 (11815, used at 1:1000), PDGFRβ (3169), IGF1Rβ (9750), EGFR (2232), and HER2 (2242) were from Cell Signaling Technology. Phospho-RSK antibody was from R&D (AF889). Antibodies to total STAT3 (sc-482) and gp130 (sc-656, used at 1:1000) were from Santa Cruz Biotechnology. […] Cell viability was measured as ATP-dependent luminescence by Cell Titer Glo (Promega).\nSince atovaquone reduced gp130 expression at the cell surface, it was asked whether this effect was accompanied by reduced total gp130 in the cell. To address this question, a time course of atovaquone treatment was performed and total cellular gp130 was measured by Western blotting in U266 cells treated with atovaquone at 20 μM. […]\nMEF, MDA-MB-468, and SKBR3 cells were treated with atovaquone (25 μM) for 6 or 12 hours, then analyzed by Western blot for expression of gp130 and various other receptors. […]"}},
  "data": [
    {"smiles": "O=C1C(O)=C([C@H]2CC[C@H](c3ccc(Cl)cc3)CC2)C(=O)c2ccccc21", "note": "[atovaquone, trans-2-[4-(4-chlorophenyl)cyclohexyl]-3-hydroxy-1,4-naphthalenedione]", "values": [
      {"measurement": "expression of multiple STAT3 target genes", "setting": "[1]", "value": "substantially downregulated"},
      {"measurement": "viability of U266 cells", "setting": "[2]", "value": "killed"},
      {"measurement": "total gp130 in other cell lines", "setting": "[3]; MEF, SKBR3, MDA-MB-468, 25 μM, 6 or 12 hours", "value": "induced loss of total gp130 after prolonged treatment"},
      {"measurement": "total cellular gp130, time course", "setting": "[3]; U266, 20 μM", "value": "not reduced except at much longer time points"}
    ]}
  ]
}
